Data on seven compounds can be found in patent US9120789B2, “1-(5-tert-butyl-2-phenyl-2H-pyrazol-3-yl)-3-[2-fluoro-4-(1-methyl-2-oxo-2,3-dihydro-1H-imidazo[4,5-b]pyridin-7-yloxy)-phenyl]-urea and related compounds and their use in therapy” (CANCER RESEARCH TECHNOLOGY LIMITED, priority 2010, dated 2015).

Test [1] has as its system pERK in mutant BRAF WM266.4 cells. Kind of test: Assay B - cell based phospho-ERK assay. Conditions: Homo sapiens, WM 266-4, 6 hours incubation. On the procedure:
(§1) Values for the blank (Empty Vector) are subtracted from all values. The DMSO controls are set as 100% activity and assay points (the response) are calculated as a percentage of the DMSO control. Data are plotted using Graphpad Prism software and a non-linear regression line is calculated using a variable slope sigmoidal dose-response equation: Y=Bottom+[Top−Bottom]/[1+10^((Log EC50−X)*HillSlope)] where X is the logarithm of concentration and Y is the response. The IC50 generated by this procedure is the concentration of the drug that produces a percentage control fluorescence value midway between the saturation, and zero-effect plateaus. Three independent assays are usually performed and the mean IC50 is reported. Biological Methods—Assay B—Cell Based Phosho-ERK Assay
Compounds were assessed using a cell-based assay which was performed according to the following protocol.
Plate out 16,000 mutant BRAF WM266.4 cells/well in 99 μL medium in a 96-well plate.
1. Add 1 μL inhibitor (test compound) to the cells (total […]).
2. Incubate the cells with test compound for 6 hours at 37° C.
3. Aspirate off the solution from all of the wells.
4. Fixate the cells with 100 μL 4% formaldehyde/0.25% Triton X-100 PBS per well.
5. Incubate the plate for 1 hour at 4° C.
6. Aspirate off the fixing solution and add 300 μL TBS per well.
7. Leave the plate overnight at 4° C.
1. Wash the plate 2× with 200 μL PBS per well.
2. Block with 100 μL 5% dried milk in TBS.
3. Incubate the plate for 20 minutes at 37° C.
4. Wash the plate 2× with 0.1% tween/H2O.
5. Add 50 μL of 3 μg/mL primary antibody pERK (Sigma M8159), diluted in 5% milk powder/TBS, to each well.
6. Incubate the plate for 2 hours at 37° C.
7. Wash the plate 3× with 0.1% tween/H2O.
8. Add 50 μL of 0.45 μg/mL secondary Europium-labelled anti-mouse antibody (Perkin Elmer) to each well.
9. Incubate the plate for 1 hour at 37° C.
10. Wash the plate 3× with 0.1% tween/H2O.
11. Add 100 μL enhancement solution (Perkin Elmer) to each well.
12. Leave the plate for approximately 10 minutes at room temperature before gently shaking the plate.
13. Read Europium Time Resolved Fluorescence in Victor2.
14. Wash the plate 2× with 0.1% tween/H2O.
15. Measure the protein concentration with BCA (Sigma) by adding 200 μL of solution per well.
16. Incubate the plate for 30 minutes at 37° C.
17. Read absorbance levels at 570 nm in a plate reader.
Note that Europium counts are normalised for protein levels by dividing counts by absorbance.
as §1, with “blank (no cells)” for “blank (Empty Vector)”, “the response).” for “the response.”, “Methods—Assay C—SRB Cell Proliferation” for “Methods—Assay B—Cell Based Phosho-ERK”, “Assay (SRB GI50)” for “Assay”

Test [2] has as its system WM266.4 melanoma cell line (mutant BRAF). Kind of test: Assay C - SRB cell proliferation assay, WM266.4. In kind it is cell-based. Conditions: Homo sapiens, WM 266-4, 120 h; WM266.4, 5 days growth. How it is done:
as §1, with “blank (no cells)” for “blank (Empty Vector)”, “the response).” for “the response.”, “Methods—Assay C—SRB Cell Proliferation” for “Methods—Assay B—Cell Based Phosho-ERK”, “Assay (SRB GI50)” for “Assay”
(§2) Cell lines (e.g., WM266.4 and A375M melanoma cell lines; SW620 colorectal carcinoma cell line) are routinely cultured in DMEM or RPMI1640 supplemented with 10% foetal bovine serum, at 37° C., in 10% CO2 water saturated atmosphere. Cultures are maintained in exponential growth phase by sub-culturing before having become confluent (3-5 day intervals). Single cell suspensions are prepared by harvesting an 80 cm^2 tissue culture flask with 5 mL commercial trypsin EDTA. After 5 minutes, the detached cells are mixed with 5 mL fully complemented culture medium and centrifugally pelleted (1000 rpm for 7 minutes). After aspirating the supernatant, the cell pellet is re-suspended in 10 mL fresh medium and the cells fully disaggregated by drawing the whole volume up/down 5 times through a 19-gauge needle. The concentration of the cells is determined using a haemocytometer ( 1/10 dilution). A suitable volume to give at least a 2-fold excess for the number of tests being conducted, typically 100-200 mL, is prepared by diluting the cell suspension to 10,000-40,000/mL, and 100 μL/well dispensed into 96 well plates using a programmable 8-channel peristaltic pump, giving 1000-4000 cells/well, leaving column 12 blank. The plates are returned to the incubator for 24 hours to allow the cells to re-attach.
(§3) The compounds being tested are prepared at 10 mM in DMSO. Aliquots (24 μL) are diluted into 1.2 mL culture medium giving 200 μM, and 10 serial dilutions of 3× performed by transferring 80 μL to 160 μL. Aliquots (100 μL) of each dilution are added to the wells, using an 8-channel pipettor, thus performing a final further 2× dilution, and giving doses ranging from 100 μM to 0.005 μM. Column 11 receives plain culture medium only. Each compound is tested in quadruplicate, each replicate being the average of four wells.
(§4) After a further 5 days growth, the plates are emptied, and the cells are fixed in 10% trichloroacteic acid for 30 minutes at 4° C. After thorough rinsing in running tap water, the plates are dried, and stained by adding 50 μL of a solution of 0.1% sulphorhodamine-B in 1% acetic acid, for 10 minutes at room temperature. The stain is poured out and the plates thoroughly rinsed under a stream of 1% acetic acid, thus removing unbound stain, and dried. The bound stain is taken into solution by addition of 100 μL Tris buffer pH 8, followed by 10 minutes on a plate-shaker (approximately 500 rpm). The absorbance at 540 nm in each well (being proportional to the number of cells present) is determined using a plate reader.
(§5) After averaging the blank values in column 12 this was subtracted from all values, and results expressed as a percentage of the untreated value (column 11). […] The GI50 generated by this procedure is the concentration of the drug that produces a percentage control A540 midway between the saturation, and zero-effect plateaus.

Test [3] deals with A375M melanoma cell line (mutant BRAF). Kind of test: Assay C - SRB cell proliferation assay, A375M. It is filed as cell-based. Conditions: Homo sapiens, 120 h, 5 days growth. On the procedure:
as §1, with “blank (no cells)” for “blank (Empty Vector)”, “the response).” for “the response.”, “Methods—Assay C—SRB Cell Proliferation” for “Methods—Assay B—Cell Based Phosho-ERK”, “Assay (SRB GI50)” for “Assay”
as §2, §3, §4, §5

Test [4] concerns SW620 colorectal carcinoma cell line (mutant RAS). Briefly: Assay C - SRB cell proliferation assay, SW620. In kind it is cell-based. As to conditions: Homo sapiens, SW-620, 120 h; SW620, 5 days growth. How it is done:
as §1, with “blank (no cells)” for “blank (Empty Vector)”, “the response).” for “the response.”, “Methods—Assay C—SRB Cell Proliferation” for “Methods—Assay B—Cell Based Phosho-ERK”, “Assay (SRB GI50)” for “Assay”
as §2, §3, §4, §5

With `Cc1ccc(-n2nc(C(C)(C)C)cc2NC(=O)Nc2ccc(Oc3ccnc4[nH]c(=O)n(C)c34)c3ccccc23)cc1` [BB-02, 1-(1-N-p-tolyl-3-tert-butyl-pyrazol-5-yl)-3-(4-(2-oxo-2,3-dihydro-1-N-methyl-1H-imidazo[4,5-b]pyridin-7-yl-oxy)naphthalen-1-yl)urea], in test [1], the half-inhibitory concentration (IC50) was 26 nM. Further, the results for the concentration for 50% growth inhibition (GI50) in test [2], in test [3] and in test [4] were 16 nM, 101 nM and 1680 nM, respectively.
`Cc1ccc(-n2nc(C(C)(C)C)cc2NC(=O)Nc2ccc(Oc3ccnc4[nH]c(=O)n(C)c34)cc2)cc1` [XX-02, 1-(1-N-p-tolyl-3-tert-butyl-pyrazol-5-yl)-3-(4-(2-oxo-2,3-dihydro-1-N-methyl-1H-imidazo[4,5-b]pyridin-7-yl-oxy)phenyl)urea] returned an IC50 in test [1] of 90 nM. Further, the GI50 in test [2] worked out at 66 nM; in test [3] it was 250 nM; in test [4] it was 450 nM.
As for `Cn1c(=O)[nH]c2nccc(Oc3ccc(NC(=O)Nc4cc(C(C)(C)C)nn4-c4ccccc4)c(F)c3)c21` [AA-01, 1-(3-Tert-butyl-1-phenyl-1H-pyrazol-5-yl)-3-(2-fluoro-4-(1-N-methyl-2-oxo-2,3-dihydro-1H-imidazo[4,5-b]pyridin-7-yloxy)phenyl)urea], the IC50 in test [1] came out at 260 nM. The GI50 worked out at 52 nM in test [2], 138 nM in test [3] and 167 nM in test [4].
Taken in the same sequence, the figures for `CC(C)(C)c1cc(NC(=O)Nc2ccc(Oc3ccnc4[nH]c(=O)[nH]c34)cc2)n(-c2ccc(F)cc2)n1` [XX-04, 1-[5-tert-Butyl-2-(4-fluoro-phenyl)-2H-pyrazol-3-yl]-3-[4-(2-oxo-2,3-dihydro-1H-imidazo[4,5-b]pyridin-7-yloxy)-phenyl]urea] were 200 nM, 20 nM, 307 nM and 2720 nM.
Taken in the same sequence, the figures for `Cn1c(=O)[nH]c2nccc(Oc3ccc(NC(=O)Nc4cc(C(C)(C)C)nn4-c4ccccc4)c4ccccc34)c21` [BB-01, 1-(3-Tert-butyl-1-phenyl-1H-pyrazol-5-yl)-3-(4-(1-methyl-2-oxo-2,3-dihydro-1H-imidazo[4,5-b]pyridin-7-yloxy)naphthalen-1-yl)urea] were 19 nM, 8 nM, 52 nM and 1600 nM.
Compound `Cn1c(=O)n(C)c2c(Oc3ccc(NC(=O)Nc4cc(C(C)(C)C)nn4-c4ccccc4)c(F)c3)ccnc21` [XX-03, 1-(3-Tert-butyl-1-phenyl-1H-pyrazol-5-yl)-3-(4-(1,3-dimethyl-2-oxo-2,3-dihydro-1H-imidazo[4,5-b]pyridin-7-yloxy)-2-fluorophenyl)urea] came in with an IC50 in test [1] of 120 nM. Besides, the GI50 in test [2] stood at 33 nM; in test [3] it was 247 nM; in test [4], 6830 nM.
For `CC(C)(C)c1cc(NC(=O)Nc2ccc(Oc3ccnc4[nH]c(=O)[nH]c34)cc2)n(-c2ccccc2)n1` [XX-01, 1-(5-Tert-butyl-2-phenyl-2H-pyrazol-3-yl)-3-[4-(2-oxo-2,3-dihydro-1H-imidazo[4,5-b]pyridin-7-yloxy)-phenyl]-urea] the same measures were 620 nM, 390 nM, 1130 nM and 840 nM.
